{"source": "patent US20160100586A1", "about": "“MICROBIAL AGRICULTURE” (DSM IP ASSETS B.V., priority 2013, published 2016)", "test_system": "Colletotrichum gloeosporioides (CBS272.51)", "assay": "Agar plug bio-assay on YME agar, fungal colony radius towards Streptomyces or natamycin plug", "format": "cell-based", "method": "Three fungal plant pathogens were tested against the selected S. natalensis strains: Fusarium oxysporum f.sp. lycopersici (CBS414.90), Colletotrichum gloeosporioides (CBS272.51) and Alternaria alternata (CBS103.33). Fusarium oxysporum f.sp. lycopersici is a soil borne fungus causing yield loss in e.g. tomato crops (Fusarium Wilt). Colletotrichum gloeosporioides causes e.g. anthracnose, a plant disease recognizable by dark brown lesions on leaves and fruits. Alternaria alternata is a worldwide occurring saprophyte that can cause phytopathogenic reactions in economically important host plants. The selected S. natalensis strains were tested against these fungal plant pathogens as described below. Frozen vials (glycerol stocks) or freeze dried tubes from the selected S. natalensis strains were transferred to 100 ml baffled Erlenmeyer flasks containing 20 ml of Yeast Malt Extract broth (YME). Freeze dried tubes were resuspended in physiological saline and stored 1 hour at room temperature before they were transferred to the medium. The Erlenmeyer flasks were incubated in an incubator shaker for 3 days at 28° C. and 180 rpm. For each strain, 200 μl of liquid media was transferred to YME agar plates (90 mm petridishes containing 20 ml of media) and dispersed with the use of a sterile spreader onto the surface of the media). Subsequently, the agar plates were incubated for 4 days at 28° C. to enhance full colony coverage of the plate surface. The selected fungi were plated directly from a glycerol stock (200 μl) to YME agar and subsequently incubated for 4 days at 28° C. The bio-assay was done as follows. Overgrown Streptomyces and fungi plates made as described above were used to produce agar plugs. The plugs were made by cutting out the agar by using a sterile cork-borer (11 mm diameter) and subsequently removing it by a pre-sterilized spatula. Freshly produced non-inoculated YME agar plates were marked with a line on the back of the petridish. This line with a fixed length of 4 cm was placed in the middle of the petridish. Subsequently, a Streptomyces inoculated agar plug was transferred to the fresh YME agar plate at the left end of the line. The above-described “plug transfer” step was repeated for the respective fungi. The respective fungi plugs were placed at the right end of the line on the same YME agar plate. Each Streptomyces strain was challenged in triplicate against each fungus. For each tested fungus, a control sample was taken (in triplicate) by using a non-inoculated agar plug that was placed on the left side of the petridish. Next, the plates were placed with the plugs on top in an incubator. Subsequently, the plates were stored at 28° C. for 7 days. After 7 days the radius of the fungal colony was measured in the direction of the opposite agar plug (Streptomyces sample). This step was repeated for the control sample. The inhibition zone (in percentage) was calculated by using the following formula: 100%*(r0−r1)/r0 wherein r0 is the radius (in mm, corrected for the plug radius) of the fungal colony from the control sample and wherein r1 is the radius (in mm, corrected for the plug radius) of the fungal colony from the Streptomyces inhibited sample. Frozen vials (glycerol stocks) from the selected S. natalensis strains were transferred to 100 ml baffled Erlenmeyer flasks containing 20 ml of Yeast Malt Extract broth (YME). The Erlenmeyer flasks were incubated in an incubator shaker for 3 days at 28° C. and 180 rpm. For each strain, 200 μl of liquid media was transferred to YME agar plates and incubated for 4 days at 28° C. to enhance full colony coverage of the plate surface. Botrytis cinerea was plated directly from glycerol stock (100 μl) to YME agar and subsequently incubated for 9 days at 28° C. All other selected fungi were plated directly from a glycerol stock (200 μl) to YME agar and subsequently incubated for 4 days at 28° C. […]"}
{"smiles": "C[C@@H]1C/C=C/C=C/C=C/C=C/[C@H](O[C@@H]2O[C@H](C)[C@@H](O)[C@H](N)[C@@H]2O)C[C@@H]2O[C@](O)(C[C@@H](O)C[C@H]3O[C@@H]3/C=C/C(=O)O1)C[C@H](O)[C@H]2C(=O)O", "note": "[Natamycin, natamycin]", "values": [{"measurement": "inhibition at 10 ppm", "setting": "Colletotrichum gloeosporioides, CBS272, 168 h, Example 7, agar plug with 10 ppm natamycin, 5% w/w methanol, 7 days at 28° C., read-out: Average inhibition zone (in %)", "result": 4, "unit": "%"}, {"measurement": "inhibition at 25 ppm", "setting": "Colletotrichum gloeosporioides, CBS272, 168 h, Example 7, agar plug with 25 ppm natamycin, 5% w/w methanol, 7 days at 28° C., read-out: Average inhibition zone (in %)", "result": 7, "unit": "%"}, {"measurement": "inhibition at 50 ppm", "setting": "Colletotrichum gloeosporioides, CBS272, 168 h, Example 7, agar plug with 50 ppm natamycin, 5% w/w methanol, 7 days at 28° C., read-out: Average inhibition zone (in %)", "result": 15, "unit": "%"}, {"measurement": "inhibition at 75 ppm", "setting": "Colletotrichum gloeosporioides, CBS272, 168 h, Example 7, agar plug with 75 ppm natamycin, 5% w/w methanol, 7 days at 28° C., read-out: Average inhibition zone (in %)", "result": 18, "unit": "%"}, {"measurement": "inhibition at 100 ppm", "setting": "Colletotrichum gloeosporioides, CBS272, 168 h, Example 7, agar plug with 100 ppm natamycin, 5% w/w methanol, 7 days at 28° C., read-out: Average inhibition zone (in %)", "result": 21, "unit": "%"}, {"measurement": "inhibition at 175 ppm", "setting": "Colletotrichum gloeosporioides, CBS272, 168 h, Example 7, agar plug with 175 ppm natamycin, 5% w/w methanol, 7 days at 28° C., read-out: Average inhibition zone (in %)", "result": 25, "unit": "%"}, {"measurement": "inhibition at 250 ppm", "setting": "Colletotrichum gloeosporioides, CBS272, 168 h, Example 7, agar plug with 250 ppm natamycin, 5% w/w methanol, 7 days at 28° C., read-out: Average inhibition zone (in %)", "result": 28, "unit": "%"}, {"measurement": "inhibition at 375 ppm", "setting": "Colletotrichum gloeosporioides, CBS272, 168 h, Example 7, agar plug with 375 ppm natamycin, 5% w/w methanol, 7 days at 28° C., read-out: Average inhibition zone (in %)", "result": 35, "unit": "%"}, {"measurement": "inhibition at 500 ppm", "setting": "Colletotrichum gloeosporioides, CBS272, 168 h, Example 7, agar plug with 500 ppm natamycin, 5% w/w methanol, 7 days at 28° C., read-out: Average inhibition zone (in %)", "result": 41, "unit": "%"}, {"measurement": "natamycin concentration in agar plug giving similar inhibition zone as the S. natalensis ATCC-27448 agar plug", "setting": "Example 7, 7 days at 28° C.", "result": "approximately 375 ppm"}, {"measurement": "Fungal radius (in mm)", "setting": "Example 7, agar plug with 10 ppm natamycin, 5% w/w methanol, 7 days at 28° C.", "result": 44.3, "unit": "mm"}, {"measurement": "Fungal radius (in mm)", "setting": "Example 7, agar plug with 25 ppm natamycin, 5% w/w methanol, 7 days at 28° C.", "result": 43.2, "unit": "mm"}, {"measurement": "Fungal radius (in mm)", "setting": "Example 7, agar plug with 50 ppm natamycin, 5% w/w methanol, 7 days at 28° C.", "result": 39.3, "unit": "mm"}, {"measurement": "Fungal radius (in mm)", "setting": "Example 7, agar plug with 75 ppm natamycin, 5% w/w methanol, 7 days at 28° C.", "result": 37.8, "unit": "mm"}, {"measurement": "Fungal radius (in mm)", "setting": "Example 7, agar plug with 100 ppm natamycin, 5% w/w methanol, 7 days at 28° C.", "result": 36.7, "unit": "mm"}, {"measurement": "Fungal radius (in mm)", "setting": "Example 7, agar plug with 175 ppm natamycin, 5% w/w methanol, 7 days at 28° C.", "result": 34.8, "unit": "mm"}, {"measurement": "Fungal radius (in mm)", "setting": "Example 7, agar plug with 250 ppm natamycin, 5% w/w methanol, 7 days at 28° C.", "result": 33.2, "unit": "mm"}, {"measurement": "Fungal radius (in mm)", "setting": "Example 7, agar plug with 375 ppm natamycin, 5% w/w methanol, 7 days at 28° C.", "result": 30.3, "unit": "mm"}, {"measurement": "Fungal radius (in mm)", "setting": "Example 7, agar plug with 500 ppm natamycin, 5% w/w methanol, 7 days at 28° C.", "result": 27.3, "unit": "mm"}]}
